Data as given in patent publication US20200253864A1, “VOLATILE ANESTHETIC COMPOSITIONS COMPRISING EXTRACTIVE SOLVENTS FOR REGIONAL ANESTHESIA AND/OR PAIN RELIEF” (The Board of Regents of the University of Texas System, priority 2008, published 2020).
Values joined by “and” are separate entries in the source; they are usually repeats but may differ in a detail not shown here. Identical values can stand only once.

Legend:
Sprague-Dawley rats = assay: Intrathecal injection of isoflurane or sevoflurane, hotplate test (thermal withdrawal latency); format: in vivo, rat; conditions: for Thermal withdrawal latency, Average (per rat): average of three tests, both paws; for Thermal withdrawal latency, Group Average: four rats; for Thermal withdrawal latency, Test 1 Left / Thermal withdrawal latency, Test 1 Right / Thermal withdrawal latency, Test 2 Left / Thermal withdrawal latency, Test 2 Right / Thermal withdrawal latency, Test 3 Left / Thermal withdrawal latency, Test 3 Right: individual rats, cutoff 25 seconds; for Adverse effects / Full recovery from the intrathecal injection (return to thermal latency baseline): intrathecal 2 microliters, rats; for Analgesic effect: intrathecally delivered dose of 2 microliters
Method: This study was designed to evaluate efficacy of direct intrathecal injection of anesthetic agent gases in reducing pain and providing analgesia. The study was conducted over a one (1) month period using anesthetic gases isoflurane and sevoflurane injected directly intrathecally or dissolved in saline as shown in the studies below. The subject animal used was the rat, since the rat has a well-established model of pain/analgesia testing. In particular, Sprague-Dawley rats weighing over 350gm were used. The rats were anesthetized with pentobarbital (50mg/kg), and the anesthetic depth of the animals was determined by corneal reflex and paw withdrawal reflex to a noxious stimulus.
[…]. A midline surgical dissection of the posterior neck muscles was performed to obtain access to the occipito-atlantoid membrane. This membrane was identified and then dissected. A sterile polyethylene catheter was introduced in the subarachnoid space until the lumbar enlargement of the spinal cord (approximately 7-8 cm measured in each animal). The surgical wound was closed, first suturing the neck muscles with 3-0 silk sutures and then closing the skin incision with staples.
After the surgery, the rats were moved to their cages and a radiant lamp was placed over the cages so that the rats would not undergo anesthetic-induced hypothermia. The rats were continuously monitored from the end of the surgery until they were fully awake. Rats showing any motor impairment after surgery were euthanized.
On the fifth day after surgery, those rats without wound infection or motor dysfunction were transported to the pain behavioral lab to enter the intrathecal study with volatile anesthetics. Twelve rats were selected for the study. All these rats had intrathecal catheters.
Isoflurane (1-chloro-2,2,2-trifluoroethyl difluoromethyl ether) and sevoflurane (fluoromethyl 2,2,2-trifluoro-1-(trifluoromethyl) ethyl ether) were used as the halogenated ether compounds. Both of these are halogenated volatile anesthetic agents, with isoflurane manufactured by Baxter and sevoflurane manufactured by Abbott Laboratories. The 12 rats were divided into 3 groups of four rats each for study A and B.
In the first group, 2 microliters of preservative-free normal saline was injected via the intrathecal catheter into each rat. This catheter was then flushed with preservative-free normal saline. Pain behavioral testing on this group was then performed.
In the second group, 2 microliters of isoflurane was injected via the intrathecal catheter into each rat. This catheter was also flushed with preservative-free normal saline. This group was then subjected to pain behavioral testing.
In the third group, 2 microliters of sevoflurane was injected via the intrathecal catheter into each rat. This catheter was also flushed with preservative-free normal saline. This group was then subjected to pain behavioral testing.
A “hotplate” behavioral test was used to evaluate pain perception and analgesia. The pain behavioral testing model used in these studies have been well established by Tony Yaksh. (See, e.g. Chaplan et al., 1994; Yaksh et al., 2001; Kim and Chung, 1992; Sorkin et al., 2001). This test involves determining how quickly a rat will withdraw its hind paw in response to a noxious stimulus such as a radiant heat source placed directly underneath its paw. This time for withdrawal is known as “thermal withdrawal latency”.
Rats were transferred for testing onto a modified Hargreaves apparatus with a heated glass plate maintained at 25° C. (see Hargreaves et al., 1988). A focused projection bulb below the plate was aimed at the mid-plantar surface of the paw. A photodiode-activated timer measured the withdrawal latency, and a cutoff time of 25 seconds was used to prevent tissue damage. Thermal withdrawal latency to radiant heat was measured at 5 minutes and 30 minutes after each intrathecal injection. Each paw was tested three times, and the results were averaged. […]

[1] = Stability/volatility: weighing remaining isoflurane in uncapped vials over time; format: physicochemical; conditions: for Effect of the solvent on the volatility of isoflurane: solution versus pure isoflurane (Table 6)
Method: The stability of isoflurane in the compositions was determined in two ways. Firstly, the compositions were examined for the presence of phase separation at the macroscopic level. Secondly, isoflurane content of the compositions were determined by weighing the remaining isoflurane in the composition when they were left uncapped over time. […] The other vials received varying amounts of isoflurane. They were left uncapped in the hood. Over time (0, 0.4, 1 , 16 , 24 h), the vials were weighed to see if the isoflurane stayed in the composition or evaporated. The amount evaporated over time in the vehicle was subtracted from that in the isoflurane composition, and therefore the amount of isoflurane in the vehicle was roughly determined at each time point.
Pure form of isoflurane is a volatile agent. In order to determine the volatility of isoflurane, two vials received the indicated amounts of pure form of isoflurane. The vials were placed in the chemical fume hood and left uncapped. The vials were weighed in the indicated times to determine the amount of evaporated isoflurane. As it is shown in the table below 0.7893g isoflurane was evaporated within 3 hrs whereas 3.4825 g isoflurane took approximately 8 hrs to evaporate completely. These amounts of isoflurane are similar to the amounts of isoflurane that were used to prepare isoflurane (iso) compositions as shown below.

rats = assay: Plantar Heat Stimulation Test (paw withdrawal latency) after subcutaneous injection into hindpaw; format: in vivo, rat; conditions: for Antinociceptive effect, treated versus untreated (contralateral) paw: 100 μl subcutaneously into hindpaw (pure isoflurane n=4; 2% lidocaine n=3), P<0.05
Method: Intraplanar Administration of Isoflurane: 100 μl of pure form Isoflurane or 100 μl of 2% Lidocaine was injected subcutaneously into the planar surface of the hindpaw. Every rat, the contralateral hindpaw, served as its own control.
Measurement of Paw Withdrawal Latency: Rats are tested for response to thermal stimulation using radiant heat (Planar Analgesia Instrument, UgoBasile, Italy). After the rats acclimate for 15 min under the acrylic boxes that allow minimal movement, the heat source was positioned beneath the mid-plantar surface of the hind paw. Withdrawal latency is defined as the period of time from the beginning of the thermal stimulation to the brisk withdrawal of the hind paw. To avoid tissue damage, a cutoff time of 22s was set. Thermal stimulation was applied three times to each hind paw at an inter-stimulus interval of 3-5 min. Thermalnociceptive threshold was assessed before and after the treatment. An increase in the withdrawal threshold in the treated paw compared to the control paw is assessed as analgesic activity of the tested formulation.
Statistical Analysis: For statistical comparison, student paired t-test analysis was used. Differences were considered significant at P<0.05.

[2] = 5 minutes after 2 microliters intrathecal
[3] = 5 minutes after 2 microliters intrathecal, saline control group 8.33
[4] = 30 minutes after 2 microliters intrathecal
[5] = 30 minutes after 2 microliters intrathecal, saline control group 8.40
[6] = 100 μl subcutaneously into hindpaw

Structure (SMILES) | Thermal withdrawal latency, Average (per rat) (Sprague-Dawley rats; [2]) | Thermal withdrawal latency, Group Average (Sprague-Dawley rats; [3]) | Thermal withdrawal latency, Test 1 Left (Sprague-Dawley rats; [2]) | Thermal withdrawal latency, Test 1 Right (Sprague-Dawley rats; [2]) | Thermal withdrawal latency, Test 2 Left (Sprague-Dawley rats; [2]) | Thermal withdrawal latency, Test 2 Right (Sprague-Dawley rats; [2]) | Thermal withdrawal latency, Test 3 Left (Sprague-Dawley rats; [2]) | Thermal withdrawal latency, Test 3 Right (Sprague-Dawley rats; [2]) | Thermal withdrawal latency, Average (per rat) (Sprague-Dawley rats; [4]) | Thermal withdrawal latency, Group Average (Sprague-Dawley rats; [5]) | Thermal withdrawal latency, Test 1 Left (Sprague-Dawley rats; [4]) | Thermal withdrawal latency, Test 1 Right (Sprague-Dawley rats; [4]) | Thermal withdrawal latency, Test 2 Left (Sprague-Dawley rats; [4]) | Thermal withdrawal latency, Test 2 Right (Sprague-Dawley rats; [4]) | Thermal withdrawal latency, Test 3 Left (Sprague-Dawley rats; [4]) | Thermal withdrawal latency, Test 3 Right (Sprague-Dawley rats; [4]) | Adverse effects (Sprague-Dawley rats) | Full recovery from the intrathecal injection (return to thermal latency baseline) (Sprague-Dawley rats) | Analgesic effect (Sprague-Dawley rats) | Start of the antinociceptive effect (rats; [6]) | further results
FC(F)OC(Cl)C(F)(F)F (stereo not drawn) [Isoflurane, 1-chloro-2,2,2-trifluoroethyl difluoromethyl ether] | 19.25 s and 18.21 s and 18.63 s and 17.95 s | 18.51 s | 17.23 s and 19.24 s and 18.11 s and 19.71 s | 19.81 s and 17.19 s and 19.20 s and 20.31 s | 18.91 s and 17.65 s and 19.80 s and 17.18 s | 20.38 s and 15.88 s and 17.90 s and 18.34 s | 18.82 s and 20.72 s and 20.07 s and 16.38 s | 20.34 s and 18.59 s and 16.71 s and 16.75 s | 9.48 s and 8.93 s and 10.52 s and 9.21 s | 9.53 s | 9.12 s and 6.35 s and 8.37 s and 10.27 s | 9.87 s and 9.08 s and 6.32 s and 9.41 s | 9.02 s and 8.22 s and 8.45 s and 7.04 s | 10.59 s and 7.81 s and 9.48 s and 6.76 s | 9.77 s and 11.62 s and 10.48 s and 10.32 s | 8.54 s and 10.49 s and 11.03 s and 7.88 s | None of the rats in the study experienced adverse effects | 30 min | analgesic effect | 25 min | % remaining iso, 0 h ([1]; 0 h): 100%; Time for isoflurane to evaporate ([1]; 0.7893 g pure isoflurane, uncapped): ≤ 3 h; Time for isoflurane to evaporate completely ([1]; 3.4825 g pure isoflurane, uncapped): approximately 8 hrs; % remaining iso, 5 h ([1]; 5 h): 38%; % remaining iso, 7 h ([1]; 7 h): 13%; % remaining iso, 8 h ([1]; 8 h): 3%; Duration of the antinociceptive effect (rats; [6]): continued throughout the experiment; Antinociceptive effect, treated versus untreated (contralateral) paw (rats): significant (P<0.05) antinociceptive effect
CN1CCCC1=O [NMP, N-Methyl-2-pyrrolidone] |  |  |  |  |  |  |  |  |  |  |  |  |  |  |  |  |  |  |  |  | Effect of the solvent on the volatility of isoflurane [1]: reduced the volatility of isoflurane
FCOC(C(F)(F)F)C(F)(F)F [Sevoflurane, fluoromethyl 2,2,2-trifluoro-1-(trifluoromethyl) ethyl ether] | 14.65 s and 13.82 s and 13.14 s and 12.98 s | 13.65 s | 14.90 s and 13.38 s and 12.34 s and 11.83 s | 13.81 s and 17.19 s and 14.98 s and 10.31 s | 15.11 s and 12.31 s and 11.03 s and 12.66 s | 13.23 s and 14.29 s and 13.93 s and 13.20 s | 14.83 s and 12.01 s and 14.16 s and 12.31 s | 16.03 s and 13.75 s and 12.37 s and 17.59 s | 8.61 s and 8.35 s and 8.89 s and 9.54 s | 8.84 s | 8.54 s and 6.87 s and 8.44 s and 10.93 s | 9.23 s and 7.38 s and 10.05 s and 9.55 s | 8.29 s and 7.99 s and 11.74 s and 6.68 s | 7.30 s and 8.92 s and 9.32 s and 8.67 s | 8.87 s and 8.10 s and 6.13 s and 12.11 s | 9.43 s and 10.83 s and 7.66 s and 9.27 s | None of the rats in the study experienced adverse effects | 30 min | analgesic effect |  | 
CCN(CC)CC(=O)Nc1c(C)cccc1C [lidocaine] |  |  |  |  |  |  |  |  |  |  |  |  |  |  |  |  |  |  |  | 5 min | Peak of the antinociceptive effect (rats; [6]): 15 min; Return of the antinociceptive effect to baseline levels (rats; [6]): 45 min; Antinociceptive effect, treated versus untreated (contralateral) paw (rats): significant antinociceptive effect
CC(O)CO (stereo not drawn) [propylene glycol] |  |  |  |  |  |  |  |  |  |  |  |  |  |  |  |  |  |  |  |  | Reduction of isoflurane volatility compared with NMP ([1]; Table 10 versus Table 8): not as good as NMP; Effect of the solvent on the volatility of isoflurane [1]: reduced the volatility of isoflurane
